Results reported in ChEMBL document CHEMBL1140330, “Carbonic anhydrase inhibitors. Design of fluorescent sulfonamides as probes of tumor-associated carbonic anhydrase IX that inhibit isozyme IX-mediated acidification of hypoxic tumors” (J Med Chem, 2005).

What was measured:
Carbonic anhydrase 1 = Carbonic anhydrase 1 (Homo sapiens, UniProt P00915)
Description: Inhibition constant against human (cloned) isozyme (hCA I) by the CO2 hydration method

Carbonic anhydrase 9 = Carbonic anhydrase 9 (Homo sapiens, UniProt Q16790)
Description: Inhibition constant against human cloned isozyme (hCA IX) by CO2 hydration method

in vitro [1] = conditions: human, whole blood; level measured in red blood cells
Description: Compound level in Red Blood Cells at 48 h, after exposure of 10 mL of Blood to compound solution by HPLC method

in vitro [2] = conditions: human, whole blood; level measured in red blood cells; remark: listed apart in the source
Description: Compound level in Red Blood Cells at 48 h, after Exposure of 10 mL of Blood to Compound solution by electronic spectroscopic method

Carbonic anhydrase 2 = Carbonic anhydrase 2 (Homo sapiens, UniProt P00918)
Description: Inhibition constant against human (cloned) isozyme (hCA II) by CO2 hydration method

in vitro [3] = conditions: human, whole blood; level measured in red blood cells; remark: listed apart in the source
Description: Compound level in Red Blood Cells at 30 min, after exposure of 10 mL of Blood to compound solution by electronic spectroscopic method

in vitro [4] = conditions: human, whole blood; level measured in red blood cells; remark: listed apart in the source
Description: Compound level in Red Blood Cells at 60 min, after exposure of 10 mL of Blood to compound solution by electronic spectroscopic method

in vitro [5] = conditions: human, whole blood; level measured in red blood cells; remark: listed apart in the source
Description: Compound level in Red Blood Cells at 60 min, after exposure of 10 mL of Blood to compound solution by HPLC method

in vitro [6] = conditions: human, whole blood; level measured in red blood cells; remark: listed apart in the source
Description: Compound level in Red Blood Cells at 30 min, after exposure of 10 mL of Blood to compound solution by HPLC method

Chain of Carbonic anhydrase 1 (P00915 whole entry): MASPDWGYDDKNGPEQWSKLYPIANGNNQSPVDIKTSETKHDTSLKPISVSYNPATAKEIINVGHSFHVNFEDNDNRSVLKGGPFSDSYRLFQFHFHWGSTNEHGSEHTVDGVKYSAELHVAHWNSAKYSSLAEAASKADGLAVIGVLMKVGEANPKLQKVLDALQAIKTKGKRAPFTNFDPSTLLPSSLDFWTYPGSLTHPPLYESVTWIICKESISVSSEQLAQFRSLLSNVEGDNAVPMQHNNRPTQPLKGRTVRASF

SMILES | Ki (Carbonic anhydrase 1) | Ki (Carbonic anhydrase 9) | concentration at 48 h (in vitro [1]) | concentration at 48 h (in vitro [2]) | Ki (Carbonic anhydrase 2) | concentration at 0.5 h (in vitro [3]) | concentration at 1 h (in vitro [4]) | concentration at 1 h (in vitro [5]) | concentration at 0.5 h (in vitro [6])
NS(=O)(=O)c1ccc(C/N=C(S)/N=C2/C=CC(=C3c4ccc(O)cc4Oc4cc(O)ccc43)C(C(=O)O)=C2)cc1 | 1450 nM | 26 nM | – | – | – | – | – | – | –
Cc1cc(C)[n+](Cc2ccc(S(N)(=O)=O)cc2)cc1C.[O-][Cl+3]([O-])([O-])[O-] | 7000 nM | 38 nM | 0.3 µM | 0.5 µM | 50 nM | 0.5 µM | 0.5 µM | 0.4 µM | 0.3 µM
NS(=O)(=O)c1ccc(CC/N=C(S)/N=C2/C=CC(=C3c4ccc(O)cc4Oc4cc(O)ccc43)C(C(=O)O)=C2)cc1 | 1300 nM | – | – | – | – | – | – | – | –
NS(=O)(=O)c1ccc(/N=C(S)/N=C2/C=CC(=C3c4ccc(O)cc4Oc4cc(O)ccc43)C(C(=O)O)=C2)c(Cl)c1 | 950 nM | 32 nM | – | – | 52 nM | – | – | – | –
NS(=O)(=O)c1ccc(/N=C(S)/N=C2/C=CC(=C3c4ccc(O)cc4Oc4cc(O)ccc43)C(C(=O)O)=C2)c(Br)c1 | 1100 nM | 35 nM | – | – | 43 nM | – | – | – | –
NCCc1ccc(S(N)(=O)=O)cc1 | – | – | 167 µM | 168 µM | – | 138 µM | 165 µM | 162 µM | 132 µM
NS(=O)(=O)c1ccc(/N=C(S)/N=C2/C=CC(=C3c4ccc(O)cc4Oc4cc(O)ccc43)C(C(=O)O)=C2)c(F)c1 | 980 nM | 30 nM | – | – | – | – | – | – | –
CC(=O)/N=c1/sc(S(N)(=O)=O)nn1C [METHAZOLAMIDE] | – | – | 167 µM | 169 µM | – | 169 µM | 168 µM | 168 µM | 170 µM
NS(=O)(=O)c1ccc(/N=C(S)/N=C2/C=CC(=C3c4ccc(O)cc4Oc4cc(O)ccc43)C(C(=O)O)=C2)c(I)c1 | 1070 nM | 31 nM | – | – | 40 nM | – | – | – | –
